Measured values as given in ChEMBL document CHEMBL3886363, “Phenyl-tetrahydroisoquinoline derivatives” (2015).
Several values for one entry are separate records, joined by “and”; a condition that tells them apart may be missing. Identical values can stand only once.

Legend:
[1] = target: T1, Cytochrome P450 11B2, mitochondrial (Homo sapiens, UniProt P19099); assay: (§1) Cellular Enzyme Assay: G-402 cells expressing CYP11 constructs were established as described above and maintained in McCoy's 5a Medium Modified, ATCC Catalog No. 30-2007 containing 10% FCS and 400 ug/ml G418 (Geneticin) at 37° C. under an atmosphere of 5% CO2/95% air. […] For assaying enzymatic activity, cells were plated onto 96 well plates and incubated for 16 h. An aliquot of the supernatant is then transferred and analyzed for the concentration of the expected product (Aldosterone for CYP11B2; Cortisol for CYP11B1). The concentrations of these steroids can be determined using HTRF assays from CisBio analyzing either Aldosterone or Cortisol.
T1 sequence (P19099 whole entry): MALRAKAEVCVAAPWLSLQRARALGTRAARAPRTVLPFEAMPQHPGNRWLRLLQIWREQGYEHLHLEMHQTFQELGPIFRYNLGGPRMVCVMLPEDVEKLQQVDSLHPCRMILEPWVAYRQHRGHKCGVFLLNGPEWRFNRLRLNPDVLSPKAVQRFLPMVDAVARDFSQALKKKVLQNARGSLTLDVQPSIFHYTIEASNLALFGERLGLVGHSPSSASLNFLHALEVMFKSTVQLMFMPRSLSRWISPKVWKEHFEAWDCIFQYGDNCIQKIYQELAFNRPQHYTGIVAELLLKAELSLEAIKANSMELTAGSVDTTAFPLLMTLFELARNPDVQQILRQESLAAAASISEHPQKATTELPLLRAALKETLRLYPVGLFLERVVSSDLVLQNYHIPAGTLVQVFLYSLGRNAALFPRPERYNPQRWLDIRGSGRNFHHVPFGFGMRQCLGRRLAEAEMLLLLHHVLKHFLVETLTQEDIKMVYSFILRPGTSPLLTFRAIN

[2] = target: T2, Cytochrome P450 11B1, mitochondrial (Homo sapiens, UniProt P15538); assay: as §1; assay type: cell-based
T2 sequence (P15538 whole entry): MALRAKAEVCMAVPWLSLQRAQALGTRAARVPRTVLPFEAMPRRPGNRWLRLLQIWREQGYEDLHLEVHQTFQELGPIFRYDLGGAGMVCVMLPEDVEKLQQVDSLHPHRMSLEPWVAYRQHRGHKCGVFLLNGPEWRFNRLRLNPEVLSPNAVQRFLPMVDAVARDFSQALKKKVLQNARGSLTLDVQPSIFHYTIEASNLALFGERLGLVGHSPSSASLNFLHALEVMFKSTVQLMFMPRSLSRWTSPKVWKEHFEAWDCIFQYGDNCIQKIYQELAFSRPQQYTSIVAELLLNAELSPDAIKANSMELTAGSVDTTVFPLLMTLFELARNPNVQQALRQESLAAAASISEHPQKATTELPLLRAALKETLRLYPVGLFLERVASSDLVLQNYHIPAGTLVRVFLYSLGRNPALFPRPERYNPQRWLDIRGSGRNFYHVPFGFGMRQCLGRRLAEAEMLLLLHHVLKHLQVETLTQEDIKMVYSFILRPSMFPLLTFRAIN

[3] = target: T1, Cytochrome P450 11B2, mitochondrial; assay: as §1; assay type: cell-based

| EC50 [1] | EC50 [2] | EC50 [3] | Compound |
| --- | --- | --- | --- |
| 5770 nM | – | – | CCC(=O)NC1CCc2c(-c3ccc(F)c(C)c3)cncc21 (single isomer, unassigned; form 1) |
| 30.3 nM | 304 nM and 792 nM | 3.1 nM | CC1(C)Cc2c(-c3ccc(C(F)(F)F)c(F)c3)cncc2C1O (single isomer, unassigned) |
| 2.2 nM and 12.1 nM | – | – | CC1(C)Cc2c(-c3ccc(C#N)cc3)cncc2C1O (single isomer, unassigned) |
| 15.2 nM | 2700 nM and 1640 nM | 30.4 nM | CC1(C)Cc2c(-c3ccc(C(F)(F)F)cc3)cncc2C1O (single isomer, unassigned) |
